Source: PubChem BioAssay (NCI)
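Interpolation was linear, between the two tested concentrations surrounding the appropriate level; five concentrations were tested over 48 hours in 96-well plates. TGI is the concentration that stops growth completely.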

How the values were obtained:
Assay in all cases: NCI anticancer screen, dose series, 48 h
NCI/ADR-RES ovarian = system: NCI/ADR-RES ovarian
ACHN renal = system: ACHN renal
A498 renal = system: A498 renal
HL-60(TB) leukemia = system: HL-60(TB) leukemia
BT-549 breast = system: BT-549 breast
CAKI-1 renal = system: CAKI-1 renal
MDA-MB-231 breast = system: MDA-MB-231 breast
NCI-H460 lung = system: NCI-H460 lung
MCF7 breast = system: MCF7 breast
SR leukemia = system: SR leukemia
SN12C renal = system: SN12C renal
HOP-92 NSCLC = system: HOP-92 NSCLC
SNB-19 CNS = system: SNB-19 CNS
786-0 renal = system: 786-0 renal
EKVX NSCLC = system: EKVX NSCLC
SK-MEL-28 melanoma = system: SK-MEL-28 melanoma
HS 578T breast = system: HS 578T breast
U251 CNS = system: U251 CNS
NCI-H23 lung = system: NCI-H23 lung
A549 NSCLC = system: A549 NSCLC
MALME-3M melanoma = system: MALME-3M melanoma
RXF 393 renal = system: RXF 393 renal
HCT-116 colon = system: HCT-116 colon
OVCAR-3 ovarian = system: OVCAR-3 ovarian
UO-31 renal = system: UO-31 renal
SF-268 CNS = system: SF-268 CNS
PC-3 prostate = system: PC-3 prostate
MDA-MB-435 = system: MDA-MB-435
HOP-62 NSCLC = system: HOP-62 NSCLC
OVCAR-5 ovarian = system: OVCAR-5 ovarian
TK-10 renal = system: TK-10 renal
HT29 colon = system: HT29 colon
M14 melanoma = system: M14 melanoma
T-47D breast = system: T-47D breast
LOX IMVI melanoma = system: LOX IMVI melanoma
NCI-H522 lung = system: NCI-H522 lung
MDA-N = system: MDA-N
NCI-H226 lung = system: NCI-H226 lung
SF-295 CNS = system: SF-295 CNS
SK-OV-3 ovarian = system: SK-OV-3 ovarian
MOLT-4 leukemia = system: MOLT-4 leukemia
SK-MEL-5 melanoma = system: SK-MEL-5 melanoma
OVCAR-8 ovarian = system: OVCAR-8 ovarian
RPMI-8226 leukemia = system: RPMI-8226 leukemia
HCC-2998 colon = system: HCC-2998 colon
UACC-62 melanoma = system: UACC-62 melanoma
SNB-75 CNS = system: SNB-75 CNS
OVCAR-4 ovarian = system: OVCAR-4 ovarian
UACC-257 melanoma = system: UACC-257 melanoma
SK-MEL-2 melanoma = system: SK-MEL-2 melanoma
IGROV1 ovarian = system: IGROV1 ovarian
KM12 colon = system: KM12 colon
SF-539 CNS = system: SF-539 CNS
COLO 205 colon = system: COLO 205 colon
K-562 leukemia = system: K-562 leukemia
CCRF-CEM leukemia = system: CCRF-CEM leukemia
HCT-15 colon = system: HCT-15 colon
DU-145 prostate = system: DU-145 prostate

For `COC1/C=C/C(C)C(OC)CC(O)/C=C/C(C)C(C(C)C(OC)C(C)CCC(=O)C(C)C(C/C=C/N(C)C=O)OC)OC(=O)/C=C/C=C(\C)CC(OC)C(OC)C2=CC(=O)O[C@@H](C(C)C(OC)C1)[C@H]2O` (stereo not given in full), the TGI (NCI/ADR-RES ovarian) was 145 nM, the TGI (ACHN renal) was 158 nM and the TGI (A498 renal) was 61.4 nM. For the same compound, the TGI (HL-60(TB) leukemia) was over 25000 nM, the TGI (BT-549 breast) was 163 nM and the TGI (CAKI-1 renal) was 52.6 nM. For the same compound, the TGI (MDA-MB-231 breast) was 83.5 nM, the TGI (NCI-H460 lung) was 188 nM and the TGI (MCF7 breast) was 170 nM. The TGI (SR leukemia) was over 25000 nM, the TGI (SN12C renal) was over 25000 nM and the TGI (HOP-92 NSCLC) was 77.3 nM. It also gave a TGI (SNB-19 CNS) of 244 nM, a TGI (786-0 renal) of 113 nM and a TGI (EKVX NSCLC) of 280 nM. For the same compound, the TGI (SK-MEL-28 melanoma) was 121 nM, the TGI (HS 578T breast) was 93 nM and the TGI (U251 CNS) was 120 nM. For the same compound, the TGI (NCI-H23 lung) was 151 nM, the TGI (A549 NSCLC) was 497 nM and the TGI (MALME-3M melanoma) was 115 nM. For the same compound, the TGI (RXF 393 renal) was 78 nM, the TGI (HCT-116 colon) was 61.3 nM and the TGI (OVCAR-3 ovarian) was 48.9 nM. For the same compound, the TGI (UO-31 renal) was 76.1 nM, the TGI (SF-268 CNS) was 129 nM and the TGI (PC-3 prostate) was 86.2 nM. It also gave a TGI (MDA-MB-435) of 195 nM, a TGI (HOP-62 NSCLC) of 67.3 nM and a TGI (OVCAR-5 ovarian) of 118 nM. It also gave a TGI (TK-10 renal) of 124 nM, a TGI (HT29 colon) of over 25000 nM and a TGI (M14 melanoma) of 84.9 nM. The TGI (T-47D breast) was 151 nM, the TGI (LOX IMVI melanoma) was 25 nM and the TGI (NCI-H522 lung) was 72.2 nM. The TGI (MDA-N) was 159 nM, the TGI (NCI-H226 lung) was 71.4 nM and the TGI (SF-295 CNS) was 79.7 nM. For the same compound, the TGI (SK-OV-3 ovarian) was 104 nM, the TGI (MOLT-4 leukemia) was over 9730 nM and the TGI (SK-MEL-5 melanoma) was 76.3 nM. It also gave a TGI (OVCAR-8 ovarian) of 199 nM, a TGI (RPMI-8226 leukemia) of 3240 nM and a TGI (HCC-2998 colon) of 51.8 nM. The TGI (UACC-62 melanoma) was 185 nM, the TGI (SNB-75 CNS) was 85.9 nM and the TGI (OVCAR-4 ovarian) was 1410 nM. The TGI (UACC-257 melanoma) was 105 nM.
`CN1CCc2c(sc3nc(Nc4ccccc4)n(N)c(=O)c23)C1` showed a TGI (NCI/ADR-RES ovarian) of over 100000 nM, a TGI (ACHN renal) of over 100000 nM and a TGI (A498 renal) of over 100000 nM. For the same compound, the TGI (HL-60(TB) leukemia) was over 100000 nM, the TGI (BT-549 breast) was over 100000 nM and the TGI (CAKI-1 renal) was over 100000 nM. The TGI (MDA-MB-231 breast) was over 100000 nM, the TGI (NCI-H460 lung) was over 100000 nM and the TGI (MCF7 breast) was over 100000 nM. The TGI (SN12C renal) was over 100000 nM, the TGI (SNB-19 CNS) was over 100000 nM and the TGI (786-0 renal) was over 100000 nM. The TGI (EKVX NSCLC) was over 100000 nM, the TGI (HS 578T breast) was over 100000 nM and the TGI (NCI-H23 lung) was over 100000 nM. It also gave a TGI (A549 NSCLC) of over 100000 nM, a TGI (RXF 393 renal) of over 100000 nM and a TGI (HCT-116 colon) of over 100000 nM. The TGI (OVCAR-3 ovarian) was over 100000 nM, the TGI (UO-31 renal) was over 100000 nM and the TGI (SF-268 CNS) was over 100000 nM. The TGI (PC-3 prostate) was over 100000 nM, the TGI (HOP-62 NSCLC) was over 100000 nM and the TGI (SK-MEL-2 melanoma) was over 100000 nM. It also gave a TGI (OVCAR-5 ovarian) of over 100000 nM, a TGI (TK-10 renal) of over 100000 nM and a TGI (HT29 colon) of over 100000 nM. For the same compound, the TGI (M14 melanoma) was 88000 nM, the TGI (T-47D breast) was over 100000 nM and the TGI (IGROV1 ovarian) was over 100000 nM. For the same compound, the TGI (KM12 colon) was over 100000 nM, the TGI (MDA-N) was over 100000 nM and the TGI (SF-539 CNS) was over 100000 nM. The TGI (NCI-H226 lung) was over 100000 nM, the TGI (SF-295 CNS) was over 100000 nM and the TGI (MOLT-4 leukemia) was over 100000 nM. It also gave a TGI (COLO 205 colon) of over 100000 nM, a TGI (K-562 leukemia) of over 100000 nM and a TGI (SK-MEL-5 melanoma) of over 100000 nM. It also gave a TGI (OVCAR-8 ovarian) of over 100000 nM, a TGI (RPMI-8226 leukemia) of over 100000 nM and a TGI (CCRF-CEM leukemia) of over 100000 nM. For the same compound, the TGI (HCT-15 colon) was over 100000 nM, the TGI (DU-145 prostate) was over 100000 nM and the TGI (UACC-62 melanoma) was over 100000 nM. For the same compound, the TGI (UACC-257 melanoma) was over 100000 nM.
